According to US5391800A, “Method for inhibition of cell motility by sphingosine-1-phosphate, its derivatives and mimetics and method of synthesizing sphingosine-1-phosphate and its derivatives” (The Biomembrane Institute, priority 1993, dated 1995):

How the values were obtained:
[1] = Toxicity to B16/F1 melanoma cells, trypan blue exclusion; format: cell-based, mouse; conditions: mouse, b16/f1 cells; B16/F1; 50 μM; 1 hour incubation; control 99; read-out: Cell viability (%)
Protocol: (§1) Effects of SPN derivatives on protein kinase C activity and cell growth of B16/F1 cells was also investigated. […] Toxicity of these compounds to B16/F1 cells and human neutrophils was also examined using a trypan blue exclusion assay after 1 hour incubation with the compounds.

B16/F1 melanoma cells = experiment: as above; format: cell-based, mouse; conditions: for Toxicity: 45-50 μM, B16/F1 cells, 1 hour
Protocol: as §1

[2] = Toxicity to human neutrophils, trypan blue exclusion; format: cell-based; conditions: human, neutrophils; neutrophil; 45 μM; 1 hour incubation; control 99; read-out: Cell viability (%)
Protocol: as §1

human neutrophils = experiment: as above; format: cell-based; conditions: 45-50 μM; human neutrophils; 1 hour
Protocol: as §1

B16/F1 cells = experiment: Phagokinetic activity of B16/F1 cells on gold sol-coated plates; format: cell-based, mouse; conditions: FIGS. 11A-F, SPN-1-P at 1.0 or 0.1 μM
Protocol: Phagokinetic activity is measured by the ability of cells to ingest foreign particles while moving. Cell motility can be estimated as the area of a phagokinetic track on gold sol particle-coated plates as previously described {Albrecht-Buehler, Cell, 11:395 (1977)}. A uniform coating of gold particles is prepared on glass coverslips precoated with bovine serum albumin, and coverslips are rinsed repeatedly to remove non-adhering or loosely-adhering gold particles. Freshly-prepared neutrophils or tumor cells detached from culture are placed in a Petri dish containing the gold sol-coated plate, and incubated for about 2 hours (for human neutrophils) or about 18 hours (for tumor cells). The coverslips are fixed for 1 hour in a 4% formaldehyde solution in phosphate-buffered saline (PBS) and mounted on microscope slides. The phagokinetic tracks are observed on a television connected to a light microscope (Nikon, Tokyo, Japan). Tracks on the television are transferred to translucent sheets, which are then photocopied. Phagokinetic activity is quantitated by cutting and weighing the swept area in the copy.
Cell motility was estimated as the area of phagokinetic track on gold sol particle-coated plates as previously described {Albrecht-Buehler, Cell, 11:395 (1977)}. […] Phagokinetic activity was quantitated by cutting and weighing the swept area in the copy. […]

[3] = system: human fibrosarcoma HT1080 cells; experiment: Chemotactic motility of fibrosarcoma HT1080 cells through MATRI-GEL-coated transwell filter; format: cell-based
Protocol: The assays for determining chemotactic cell motility and chemoinvasion can be performed using transwell plates with a polycarbonate membrane filter (pore size 8 μm) (Costar Scientific, Cambridge, Mass.). Aliguots, e.g., 50 μl, of an aqueous solution of MATRI-GEL (Collaborative Research, Bedford, Mass.) containing SPN-1-P or other inhibitor (e.g., 20 μg/ml for chemotactic motility assay or 200 μg/ml for chemoinvasion assay), is added to each well and dried overnight. The filter is then fitted onto the lower chamber plate. The lower chamber can contain conditioned medium (CM) (i.e., medium used for splenic stromal cell culture, and containing motility factor secreted by these cells), e.g., 0.6 ml, with or without SPN-1-P or other inhibitor. To the upper chamber is added, e.g., about 100 μl, of cell suspension (5×10^4 cells/ml for invasion assay, 5×10^5 cells/ml for motility assay), which is then incubated in 5% CO2 at 37° C. for 70-72 hours (invasion assay) or 20 hours (motility assay). After incubation, cells remaining in the upper chamber are wiped off with a cotton swab, and cells which had migrated to the lower chamber side of the filter are fixed in methanol for 30 seconds and stained with 0.05% toluidine blue. The filter is removed, the stain is solubilized in 10% acetic acid (e.g., 0.1 ml for invasion assay, 0.5 ml for motility assay), and color intensity (optical density) is quantitated by ELISA reading at 630 nm. Using SPN-1-P, a linear relationship was observed between cell number and toluidine blue optical density (FIG. 7).
Assays were performed using transwell plates with polycarbonate membrane filters (pore size 8 μm) (Costar Scientific, Cambridge, Mass.). 50 μl aliguots of an aqueous solution of MATRI-GEL (Collaborative Research, Bedford, Mass.) containing 20 μg/ml (for chemotactic motility assay) or 200 μg/ml (for chemoinvasion assay) were added to each well and dried overnight. The filter was fitted onto the lower chamber plate. The lower chamber contained 0.6 ml conditioned medium (CM) (i.e., medium used for splenic stromal cell culture, and containing motility factor secreted by these cells) with or without the suspected inhibitor. To the upper chamber was added 100 μl of cell suspension (5×10^4 cells/ml for invasion assay, 5×10^5 cells/ml for motility assay), which was then incubated in 5% CO2 at 37° C. for 70-72 hours (invasion assay) or 20 hours (motility assay). After incubation, cells remaining in the upper chamber were wiped off with a cotton swab, and cells which had migrated to the lower chamber side of the filter were fixed in methanol for 30 seconds and stained with 0.05% toluidine blue. The filter was removed, the stain was solubilized in 10% acetic acid (0.1 ml for invasion assay, 0.5 ml for motility assay), and color intensity (optical density) was quantitated by ELISA reading at 630 nm. A linear relationship was observed between cell number and toluidine blue optical density (FIG. 7.).
In experiments with different quantities of MATRI-GEL, cell migration through transwell filter was maximal with 1 μg/well was applied, and when CM was used (FIG. 8). Therefore, chemotactic cell motility, as affected by various SPN derivatives, was assayed under these conditions.
*Mean ± S.E. of percent relative to control (n = 4). Actual O.D. value
and 0.147 (HT1080). 6 × 10^4 cells were placed on a transwell
filter coated with 1.0 μg MATRIGEL in the upper chamber, and cultured
for 18 hours in the presence of CM and SPN1-P in the lower chamber.

Which results are given for `CCCCCCCCCCCCC/C=C/[C@@H](O)[C@@H](N)CO` [SPN, sphingosine]?
viability at 1 h, 50 µM [1]: 21%; Toxicity (B16/F1 melanoma cells): very toxic; viability at 1 h, 45 µM [2]: 5%; Toxicity (human neutrophils): very toxic; Area cleared by tumor cells (B16/F1 cells): reduced the area cleared by tumor cells

For `CCCCCCCCCCCCC/C=C/[C@@H](O)[C@@H](N)COP(=O)(O)O` [SPN-1-P, sphingosine-1-phosphate], which viability at 1 h, 50 µM [1] is on record?
Its viability at 1 h, 50 µM is 72%.

What about the “Toxicity” value (B16/F1 melanoma cells) of the same compound?
Its value is “weak toxicity”.

What about the “Cytotoxicity, comparison” value (B16/F1 melanoma cells; concentration not given) of the same compound?
The value was “far less cytotoxic than SPN, DMS, or TMS”.

And the viability at 1 h, 45 µM [2]?
Its viability at 1 h, 45 µM is 98%.

What about the “Toxicity” value (human neutrophils) of the same compound?
Its value is “weak toxicity”.

And the activity at 0.001 µM ([3]; Homo sapiens, HT-1080, HT1080, 0.001 μM, 18 hours, relative to control, mean ± S.E., n = 4)?
Its activity at 0.001 µM is 100 ± 21%.

And the activity at 0.01 µM ([3]; Homo sapiens, HT-1080, HT1080, 0.01 μM, 18 hours, relative to control, mean ± S.E., n = 4)?
Its activity at 0.01 µM is 100 ± 30%.

And the activity at 0.1 µM ([3]; Homo sapiens, HT-1080, HT1080, 0.1 μM, 18 hours, relative to control, mean ± S.E., n = 4)?
The activity at 0.1 µM was 115 ± 35%.

And the activity at 1 µM ([3]; Homo sapiens, HT-1080, HT1080, 1.0 μM, 18 hours, relative to control, mean ± S.E., n = 4)?
Its activity at 1 µM is 105 ± 14%.

What about the activity at 5 µM ([3]; Homo sapiens, HT-1080, HT1080, 5.0 μM, 18 hours, relative to control, mean ± S.E., n = 4) of the same compound?
The activity at 5 µM was 64 ± 4%.

What about the “Susceptibility of human fibrosarcoma HT1080 cells (chemotactic motility)” value ([3]; Table V, in words) of the same compound?
Its value is “low”.

And the “Area cleared by tumor cells” value (B16/F1 cells)?
The value was “greatly reduced”.
